Where a name gives a salt, the structure may show the parent alone.
Tested on: TNF-α production induced by lipopolysaccharide (LPS) stimulation
Experiment: Inhibitory effects on TNF-α production induced by LPS stimulation, in vivo test in rats (method of McGeehan et al.)
Settings: Rattus norvegicus, 2 h; female rats; LPS from Salmonella s.c.; oral administration of 10 mg/kg test compound immediately after LPS; plasma TNF-α by ELISA two hours after LPS; read-out: TNF-α production inhibition rate (%)
Procedure: Inhibitory effects on TNF-α production induced by lipopolysaccharide (LPS) stimulation were studied by in vivo tests according to the method of McGeehan et al. (Nature, 370, 558-561 (1994)).
Female rats (five per group), body weight of about 200 g, about eight weeks old, were used as test animals. LPS from Salmonella was dissolved in physiological saline to prepare an LPS solution (1 mg/ml). Test compounds were dissolved or uniformly suspended in a 1% aqueous methylcellulose solution to give test compound preparation liquids.
The above-mentioned LPS solution (0.5 ml/kg) was subcutaneously administered to the rat. Immediately after the LPS administration, the test compound preparation liquid (5 ml/kg, containing 10 mg/kg test compound) was orally administered. Two hours after the LPS administration, blood was collected from abdominal aorta and was centrifuged at 4° C. and 3000 rpm for ten minutes. TNF-α levels in the obtained plasma were measured with a rat TNF-α -specific ELISA kit. TNF-α was not observed in the plasma with respect to an LPS-nonadministered group (control).
TNF-α production inhibition rates of the test compounds were determined by the following equation.
Inhibition rate (%)=[(A−B)/A]×100
A: TNF-α level in plasma of test compound-nonadministered group
B: TNF-α level in plasma of test compound-administered group

Question: Which inhibition at 10 mg/kg does the source give for CSCCN(CCC1CCCCC1)C(=O)NCc1ccncc1 [Compound No. 5-2, 1 (2-Cyclohexylethyl)-1-[2-(methylthio)ethyl]-3-(4-pyridylmethyl)urea] here?
Answer: 81.2%

Question: For CC(=O)SCCN(CCCc1ccccc1)C(=O)NCCCc1ccncc1 [Compound No. 4-17, 1-[2-(Acetylthio)ethyl]-1-(3-phenylpropyl)-3-[3-(4-pyridyl)propyl]urea], which inhibition at 10 mg/kg is on record?
Answer: 70.6%

Question: Which inhibition at 10 mg/kg does the source give for CC(=O)SCCN(CCc1ccccc1)C(=O)NCCCc1cccnc1 [Compound No. 4-15, 1-[2-(Acetylthio)ethyl]-1-phenethyl-3-[3-(3-pyridyl)propyl]urea] here?
Answer: 77.3%

Question: With CSCCN(CCC1CCCCC1)C(=O)NCCCc1ccncc1 [Compound No. 5-1, 1-(2-Cyclohexylethyl)-1-[2-(methylthio)ethyl]-3-[3-(4-pyridyl)propyl]urea] as the molecule, how does the inhibition at 10 mg/kg read?
Answer: 74.9%

Question: For CC(=O)SCCN(CCC1CCCCC1)C(=O)NCc1ccncc1 [Compound No. 8-1, 1-[2-(Acetylthio)ethyl]-1-(2-cyclohexylethyl)-3-(4-pyridylmethyl)urea hydrochloride], which inhibition at 10 mg/kg is on record?
Answer: 80%

Question: Which inhibition at 10 mg/kg does the source give for CC(=O)SCCN(CCc1ccc(F)cc1)C(=O)NCCCc1ccncc1 [Compound No. 4-18, 1-[2-(Acetylthio)ethyl]-1-(4-fluorophenethyl)-3-[3-(4-pyridyl)propyl]urea] here?
Answer: 64.2%

Question: Which inhibition at 10 mg/kg does the source give for CC(=O)SCCN(CCc1ccccc1)C(=O)NCCCc1ccncc1 [Compound No. 4-16, 1-[2-(Acetylthio)ethyl]-1-phenethyl-3-[3-(4-pyridyl)propyl]urea] here?
Answer: 77.2%

Question: With CC(=O)SCCN(CCC1CCCCC1)C(=O)NCCCc1ccncc1 [Compound No. 4-3, 1-[2-(Acetylthio)ethyl]-1-(2-cyclohexylethyl)-3-[3-(4-pyridyl)propyl]urea] as the molecule, how does the inhibition at 10 mg/kg read?
Answer: 80.8%

Question: For CC(=O)SCCN(CCC1CCCCC1)C(=O)NCCc1ccncc1 [Compound No. 4-2, 1-[2-(Acetylthio)ethyl]-1-(2-cyclohexylethyl)-3-[2-(4-pyridyl)ethyl]urea], which inhibition at 10 mg/kg is on record?
Answer: 72.5%

Question: With CC(=O)SCCN(CCC12CC3CC(CC(C3)C1)C2)C(=O)NCc1ccncc1 [Compound No. 8-4, 1-[2-(Acetylthio)ethyl]-1-[2-(1-adamantyl)ethyl]-3-(4-pyridylmethyl)urea hydrochloride] as the molecule, how does the inhibition at 10 mg/kg read?
Answer: 81%

Question: With O=C(NCCCc1ccncc1)N(CCS)CCC1CCCCC1 [Compound No. 8-11, 1-(2-Cyclohexylethyl)-1-(2-mercaptoethyl)-3-[3-(4-pyridyl)propyl]urea hydrochloride] as the molecule, how does the inhibition at 10 mg/kg read?
Answer: 63.6%

Question: For CC(=O)SCCN(CCC1=CCCCC1)C(=O)NCc1ccncc1 [Compound No. 8-10, 1-[2-(Acetylthio)ethyl]-1-[2-(1-cyclohexenyl)ethyl]-3-(4-pyridylmethyl)urea hydrochloride], which inhibition at 10 mg/kg is on record?
Answer: 69%

Question: Which inhibition at 10 mg/kg does the source give for CC(=O)SCCN(CCC1CCCC1)C(=O)NCc1ccncc1 [Compound No. 8-3, 1-[2-(Acetylthio)ethyl]-1-(2-cyclopentylethyl)-3-(4-pyridylmethyl)urea hydrochloride] here?
Answer: 78.9%

Tested on: not given
Experiment: not given
Settings: not given

Question: With CC(=O)SCCN(CCC1CCCCC1)C(=O)NCCCc1ccncc1 [Compound No. 4-3, 1-[2-(Acetylthio)ethyl]-1-(2-cyclohexylethyl)-3-[3-(4-pyridyl)propyl]urea] as the molecule, how does the melting point read?
Answer: 70 °C

Source: patent US6420398B2, “Urea derivatives having nitrogen aromatic heterocycle” (Santen Pharmaceutical Co., Ltd., priority 1998, dated 2002)
